# Data: patent US5942494A, “Stimulation of gene expression and synthesis of heat shock protein 72/73 (HSP 70)” (The Trustees of Columbia University in the City of New York, priority 1996, dated 1999)
# Square brackets hold non-standard residues; d marks the D form. Peptide text beside a SMILES is read from it. Nle = CCCC[C@H](N)C(=O)O
# Experiments:
# Hsp104 = test: Immunoprecipitation of Hsp104 from radiolabeled HepG2 cells; format: cell-based, human; conditions: HepG2, ALLN 4 hours
# Experimental: (§1) FIGS. 7A-7B: Effects of ALLN on the biosynthesis of other members of Hsp family and related proteins. HepG2 cells were pre-treated and radiolabeled with or without ALLN for 4 hours as described in FIG. 1. Cell lysates were used for SDS-PAGE (A), or for immunoprecipitation with anti-Hsp25, -Hsp27, -Hsp60, -Hsp70, -Hsp86, -Hsp90, -Hsp104, -Bip, or -albumin antibodies respectively (1 μg/ml) (B). Because the anti-Hsp25, -Hsp27, -Hsp60 and Hsp90 antibodies are from a rat source, rabbit anti-rat IgG antibody was added after the first incubation, and the incubation was extended for another 1 hour at 4° C. before collection with protein A-Sepharose.Immunoprecipitates were loaded for SDS-PAGE and aliquoted for scintillation counting and plotting. Each value was presented as mean ±S.D. from three individual culture dishes.
# (§2) HepG2 cells were preincubated for 4 hours in serum-free MEM and then radiolabeled with ^3 H-Leucine (150 μCi/ml) in a serum-free, leucine-free medium. […] Cell lysates containing equal amounts of trichloroacetic acid (TCA)-insoluble radioactivity were used for immunoprecipitations by incubating with individual monoclonal antibody (1 μg/ml) for 2.5 hours at 4° C. […]
# proteasomes = conditions: Rock, et al., 1994; cited from earlier work
# Hsp70 = Hsp70 levels by denaturing immunoprecipitation of [3H]-leucine radiolabeled HepG2 cells; format: cell-based, human; conditions: for Hsp70 levels after removal of ALLN: 4-hour preincubation
# Experimental: The HepG2 cell culture conditions were maintained as previously described (Dixon, et al., 1991). The cells were seeded into collagen-pre-coated dishes or six-well tissue culture plates and grown in complete medium containing minimum essential medium (MEM) with 0.1 mM nonessential amino acids, 1.0 mM sodium pyruvate, penicillin/streptomycin, and 10% fetal bovine serum. Cells were fed fresh complete medium every 3 days and maintained in a 5% CO2 incubator. All experiments were performed by using exponentially growing cells at 90-95% confluency. For heat shock treatment, the dishes were sealed with Parafilm and immersed in a water bath at 42° C. for indicated durations of time. Cells were incubated with ALLN alone at indicated concentrations or combined with other chemicals at 37° C. Cells were also incubated with different protease inhibitors alone at indicated concentrations or combined with other chemicals at 37° C.
# HepG2 cells were preincubated for 4 hours in serum-free MEM and then radiolabeled with ^3 H-Leucine (150 μCi/ml) in a serum-free, leucine-free medium. Preincubation and labeling media each contained either 1.5% bovine serum albumin (BSA) alone, or BSA plus ALLN (40 μg/ml except as otherwise indicated), or BSA plus other protease inhibitors at concentrations indicated in the figure legends. At the indicated times, cells were removed from the 37° C. incubator and placed on ice, washed with cold phosphate-buffer saline (PBS) twice and lysed with lysis buffer containing 1% Triton X-100 (TX100), 1% deoxycholic acid (DOC) and 0.1% SDS in PBS containing proteinase inhibitors: 2 mM phenylmethylsulfonyl fluoride (PMSF); 2 μg/ml ALLN; 2 μg/ml leupeptin; and 2 μg/ml aprotinin. After a 30 min. incubation with lysis buffer at 4° C., the lysates were centrifuged at 14,000 g in a microcentrifuge for 5 min., and the supernatants were adjusted to 1% SDS concentration and boiled for 5 min. to denature the proteins. 1% TX100 was then added to dilute the lysates to a final concentration of 0.1% SDS. Cell lysates containing equal amounts of trichloroacetic acid (TCA)-insoluble radioactivity were used for immunoprecipitations by incubating with individual monoclonal antibody (1 μg/ml) for 2.5 hours at 4° C. Protein-A Sepharose 4B was added afterwards and the lysates incubated for another 1.5 hours at 4° C. to collect the immunocomplexes. After washing four times with 1×NET buffer (containing 0.5% TX100, 0.1% SDS), the immunocomplexes were mixed with sample buffer and boiled for 5 min. Following centrifugation, the supernatants were aliquoted for scintillation counting and for 3-15% gradient polyacrymide gel electrophoresis (SDS-PAGE) . The gels were later subjected to fluorography. All values are presented as the mean ± S.D. from three individual experiments except as otherwise indicated.
# Denaturing immunoprecipitation was chosen because Hsp70 is a major cytosolic chaperone protein and it is co-immunoprecipitated with a number of other proteins under non-denaturingconditions (Beckmann, et al., 1990; Zhou, et al., 1995).
# Bip = test: Immunoprecipitation of Bip from radiolabeled HepG2 cells; format: cell-based, human; conditions: HepG2, ALLN 4 hours
# Experimental: as §1, §2
smiles,measurement,setting,value
"CCCC[C@@H](C=O)NC(=O)[C@H](CC(C)C)NC(=O)[C@H](CC(C)C)NC(C)=O [ALLN, N-acetyl-leucyl-leucyl-norleucinal] (Ac-Leu-Leu-[Nle]-aldehyde)",Effect on Hsp104,Hsp104,no effects
same,Inhibition of proteasomes,proteasomes,potent inhibitors
same,Hsp70 levels after removal of ALLN,Hsp70; end of a 2-hour wash,25 fold
same,Hsp70 levels after removal of ALLN,Hsp70; end of a 6-hour wash,8 fold
same,Hsp70 levels after removal of ALLN,Hsp70; end of an 8-hour wash,4 fold
same,Increment of newly synthesized Hsp70 levels compared with untreated cells,"Hsp70; 30 min. labeling, data from several experiments",~30 fold
same,Hsp70 levels induced,"Hsp70; ALLN 10 μg/ml, 4 hours pre-treatment, HepG2",more than 9 fold
same,Increase of rate of incorporation of [3H]-leucine into Hsp70,"Hsp70; ALLN 40 μg/ml 4 hours preincubation, labeling 10-60 min, every time point",about 25 fold
same,Induction of Hsp70 by protease inhibitors,"Hsp70; HepG2, 4 hours pre-treatment, ALLN, ALLM 40 μg/ml, leupeptin, pepstatin A 50 μg/ml, E-64d 25 μg/ml, PMSF 1 mM, aprotinin 100 KIU/ml, Benz 1 mM, CIP 200 μM",significantly induce
same,Induction of Hsp70 levels above baseline,"Hsp70; HepG2 cells and human endothelial cells, maximal induction",up to 30 fold
same,Effect on Bip,Bip,no effects
